Assays:
Bifidobacteria = test: Growth in the presence of butyrate (data not shown); assay type: cell-based; conditions: 10 mM butyrate
lactic acid bacteria = test: as above; assay type: cell-based; conditions: 10 mM butyrate

Compound: CCCC(=O)O [butyrate]
- growth inhibition (Bifidobacteria): not inhibited
- growth inhibition (lactic acid bacteria): not inhibited
